# pEC50: −log10 of the molar value.
# Key:
# [1] = PK profile of IP6 by 4 h intravenous infusion in normal and uraemic rats; format: in vivo, Wistar rats
# Method: Experimental: Wistar rats with normal kidney function were treated daily with a dose of 10 or 50 mg/kg IP6 by intravenous infusion over 4 h. Plasma samples were obtained at different timepoints up to 4 hours on day 0. The animals were then treated orally with 600 mg/kg (p.o.) adenine for 10 days to induce renal impairment. The animals were treated with alpha-calcidol (300 ng/kg) on days 11 and 13 and plasma samples were collected at different timepoints up to 4 hours on day 14. The plasma IP6 levels were quantified for both groups.
# [2] = system: tissue calcification in a chronic renal impairment model (5/6 nephrectomised rats); test: 5/6 nephrectomy model, IP6 by i.v. bolus; format: in vivo, SD rats; details: i.v. bolus 1 or 5 mg/kg, 8 weeks
# Method: Experimental: 48 SD rats were 5/6 nephrectomised by complete right lateral nephrectomy and 2/3 partial nephrectomy of the left kidney. 16 animals per group were treated intravenously (bolus) with 2 ml/kg saline, 1 mg/kg IP6 or 5 mg/kg IP6. The animals received a phosphate-rich diet (1% Ca, 1.2% P) containing 20% lactose. After 8 weeks the aorta, heart and remaining 1/3 kidney were collected, and the tissue calcium content determined.
# [3] = system: tissue calcification in uraemic animals; test: Adenine model, non-bolus-type intravascular administration; format: in vivo, male Wistar rats
# Method: Experimental: CKD was induced in 2 groups (n=12) of male Wistar rats by oral (p.o.) treatment with adenine (600 mg/kg/day) daily for 10 days. After treatment with adenine, the rats received alpha-calcidol at a dose of 300 ng/kg (3x/week, p.o.) until day 28. From day 0 until sacrifice (day 28), the animals were treated with an intravascular infusion of 50 mg/kg IP6 or saline for 4 hours. After 28 days the aorta and heart were collected, and the tissue calcium content determined.
# [4] = Calcium chelation by IP6 in vitro (calcium-selective electrode); format: physicochemical; details: 2.5 mM calcium in NaCl 0.15 M, pH 7.40
# Method: Experimental: a 2.5 mM of calcium in NaCl 0.15 M, pH 7.40, was pipetted with increasing concentrations of IP6. The amount of free ionic calcium was measured potentiometrically using a calcium-selective electrode and a potentiometer.
# cardiovascular function = test: Cardiovascular function after bolus-type intravenous administration in conscious dogs by telemetry; format: in vivo
# Method: Experimental: 4 male dogs, 2 per dose, were injected with 10, 15 and 30 mg/kg. Two washout days were introduced between the different doses. The ECGs were recorded telemetrically. Blood ionic calcium concentrations were determined on different days to the ECG measurements.
# [5] = Administration of IP6 via the dialysis system (dialysability, calcium chelation in blood); format: in vitro ADME, human
# Method: Experimental: 1 litre of human blood obtained from patients undergoing therapeutic phlebotomy was introduced into a recipient forming a closed dialysis circuit to simulate a real dialysis. Two experiments were performed (administration pre- and post-dialyser, both in bypass and dialysis mode), administering IP6 to human blood for 20 minutes when outside the recipient (which simulated the animal or human body) and circulating via the dialysis circuit. The recipient containing 1 litre of whole blood at a controlled temperature of 37°C is connected to the dialysis apparatus to form a closed circuit. The dialysis apparatus will be connected for 1 hour (dialysis fluid flow of 500 ml/min and blood flow of 350 ml/min). Blood samples are collected at different times to determine the IP6 and ionic calcium levels.
# [6] = uraemic rats, 10 mg/kg i.v. infusion over 4 h
# [7] = uraemic rats, 50 mg/kg i.v. infusion over 4 h
# [8] = intravascular infusion of 50 mg/kg for 4 hours, 28 days, adenine uraemic rats
smiles,measurement,setting,value
"O=P(O)(O)O[C@H]1[C@H](OP(=O)(O)O)[C@@H](OP(=O)(O)O)[C@H](OP(=O)(O)O)[C@@H](OP(=O)(O)O)[C@H]1OP(=O)(O)O [IP6, inositol hexaphosphate]",concentration at 4 h,"[1]; Wistar, rat, plasma, iv, uraemic rats, 10 mg/kg i.v. infusion over 4 h, read-out: plasma concentration after 4 hours",1200 nM
same,peak plasma concentration,"[1]; normal rats, 10 mg/kg i.v. infusion over 4 h",8.4 µM
same,peak plasma concentration,"[1]; normal rats, 50 mg/kg i.v. infusion over 4 h",68.4 µM
same,peak concentration,[1]; [6],2.8 µM
same,time of peak concentration,[1]; [6],30 min
same,peak plasma concentration,[1]; [7],24.6 µM
same,time of peak plasma concentration,[1]; [7],4 h
same,period with approximately constant concentration,"[1]; uraemic rats, 50 mg/kg i.v. infusion, from hour 1 to hour 4",3 h
same,"calcification inhibition (aorta, heart, remaining kidney)",[2],no evidence of calcification inhibition
same,reduction of plasma IP6 levels by the end of the experiment,"[3]; due to high metabolic rate, 50 mg/kg infusion, uraemic rats",90%
same,reduction in average calcification in the aorta,[3]; [8],80%
same,reduction in average calcification in the heart,[3]; [8],85%
same,IP6 concentration above which ionic calcium chelation is significant,[4],above 379 µM
same,IP6 concentration at which chelation saturates,[4],3788 µM
same,pEC50,[4]; read-out: EC50 of ionic calcium chelation,3.27
same,dose above which mild tachycardia and prolonged QTc interval were observed,cardiovascular function; i.v. bolus,above 15 mg/kg
same,dose above which tachycardia and QTc prolongation become significant,cardiovascular function; i.v. bolus,above 30 mg/kg
same,effects on ECG parameters or ionic calcium concentrations,cardiovascular function; i.v. bolus 10 mg/kg,no significant effects
same,decrease in ionic calcium,"cardiovascular function; i.v. bolus, correlated with the prolonged QTc interval",30%
same,loss of IP6 via the dialysis membrane,"[5]; administration via the dialysis line for 20 minutes, 1 litre human blood, 37°C",not lost via the dialysis membrane
same,effect on free calcium in blood,[5]; apparatus in bypass mode,chelates (sequesters) free calcium
same,effect on ionic calcium levels in blood,[5]; apparatus in dialysis mode,ionic calcium levels are restored

# From patent EP2974714B1, “USE OF DERIVATIVES WITH C-O-P BONDS IN PATIENTS WITH RENAL FAILURE” (LABORATORIS SANIFIT, S.L., priority 2013, dated 2014)
